Results: patent US20120157472A1, “METHOD FOR TREATING COLORECTAL CANCER” (BOEHRINGER INGELHEIM INTERNATIONAL GMBH, priority 2009, published 2012)
Entries after “also recorded” stand apart in the source; their conditions may differ.

Legend:
[1] = test system: human colorectal cancer cell lines; test: In vitro effects on human colorectal cancer cell lines; assay type: cell-based; details: for cytotoxic activity: conclusion, single agent; for growth inhibition / cell cycle effect: exposure of colorectal cancer cells to single agent
Protocol: (§1) A panel of 14 well-characterized human colorectal cancer cell lines were used to characterize the in vitro effects of BIBF 1120 (B1), BIBW 2992 (B2) and their combinations. The antitumor effects of the 2 drugs were evaluated in mice with HT-29 colorectal xenografts.

[2] = test system: HT-29 colorectal xenografts; test: Tumor growth inhibition in mice with HT-29 colorectal xenografts; assay type: in vivo; details: single agent, daily 10 mg/kg p.o., HT-29 xenografts, sub-optimal dose
Protocol: as §1
The tumor growth inhibitory activities of B1 and B2 were determined for HT-29 xenografts after daily drug administration (10 mg/kg p.o.) or, for control animals, by oral administration of the solvent. […] Since the studies were designed to detect additive or synergistic interactions between the two drugs in subsequent experiments, only sub-optimal doses were used in these studies. Each group represents at least seven mice.
The tumor growth inhibitory activities of B1 and B2 were determined for HT-29 xenografts after daily drug administration (10 mg/kg p.o.) or, for control animals, by oral administration of the solvent.

angiogenesis = test: Angiogenesis inhibition by CD31 staining; assay type: in vivo

Compound | cytotoxic activity [1] | growth inhibition / cell cycle effect [1] | tumor growth inhibitory activity (tumor volume over treatment time) [2] | inhibition of angiogenesis (angiogenesis)
COC(=O)c1ccc2c(c1)NC(=O)/C2=C(\Nc1ccc(N(C)C(=O)CN2CCN(C)CC2)cc1)c1ccccc1 [B1, 3-Z-[1-(4-(N-((4-methyl-piperazin-1-yl)-methylcarbonyl)-N-methyl-amino)-anilino)-1-phenyl-methylene]-6-methoxycarbonyl-2-indolinone] | cytotoxic | growth inhibition linked to extensive G1 arrest | exhibit growth inhibitor activity | inhibited angiogenesis; also recorded: antiangiogenic activity
CN(C)C/C=C/C(=O)Nc1cc2c(Nc3ccc(F)c(Cl)c3)ncnc2cc1O[C@H]1CCOC1 [B2, 4-[(3-chloro-4-fluorophenyl)amino]-6-{[4-(N,N-dimethylamino)-1-oxo-2-buten-1-yl]amino}-7-((S)-tetrahydrofuran-3-yloxy)-quinazoline] | cytotoxic | growth inhibition linked to extensive G1 arrest | exhibit growth inhibitor activity | inhibited angiogenesis; also recorded: antiangiogenic activity
